# Assay results taken from patent US7157481B2 (priority 1997, dated 2007).
# How the values were obtained:
# [1] = log P determination by HPLC (EEC Directive 79/831 Annex V. A8, gradient method); type: physicochemical; conditions: acetonitrile/0.1% aqueous phosphoric acid
# Venturia inaequalis = test: Venturia Test (Apple)/protective; type: in vivo; conditions: young apple plants sprayed at 100 g/ha, protective; evaluation 12 days after inoculation
# Method: Venturia Test (Apple)/protective
# (§1) To produce a suitable preparation of active compound, 1 part by weight of active compound is mixed with the stated amounts of solvent and emulsifier, and the concentrate is diluted with water to the desired concentration.
# To test for protective activity, young plants are sprayed with the preparation of active compound at the stated application rate. After the spray coating has dried on, the plants are inoculated with an aqueous conidia suspension of the causative organism of apple scab Venturia inaequalis and then remain in an incubation cabin at approximately 20° C. and 100% relative atmospheric humidity for 1 day.
# The plants are then placed in a greenhouse at approximately 21° C. and a relative atmospheric humidity of approximately 90%.
# Evaluation is carried out 12 days after the inoculation. 0% means an efficacy which corresponds to that of the control, while an efficacy of 100% means that no infection is observed.
# [2] = test system: caterpillars of the diamond-back moth (Plutella xylostella); test: Plutella Test; type: in vivo; conditions: cabbage leaves dipped, 0.1 % by weight active compound; after 7 days
# Method: as §1
# Cabbage leaves (Brassica oleracea) are treated by being dipped into the preparation of active compound of the desired concentration and populated with caterpillars of the diamond-back moth (Plutella xylostella) while the leaves are still moist.
# After 7 days, the kill is determined and expressed in per cent. An efficacy of 100% means that all caterpillars have been killed, while an efficacy of 0% means that none of the caterpillars have been killed.
# Leptosphaeria nodorum = Leptosphaeria nodorum Test (Wheat)/protective; type: in vivo; conditions: young wheat plants sprayed at 250 g/ha, protective; evaluation 10 days after inoculation
# Method: Leptosphaeria nodorum Test (Wheat)/protective
# as §1
# To test for protective activity, young plants are sprayed with the preparation of active compound at the stated application rate. After the spray coating has dried on, the plants are sprayed with a spore suspension of Leptosphaeria nodorum. The plants remain in an incubation cabin at 20° C. and 100% relative atmospheric humidity for 48 hours.
# The plants are then placed in a greenhouse at a temperature of approximately 15° C. and a relative atmospheric humidity of 80%.
# Evaluation is carried out 10 days after the inoculation. 0% means an efficacy which corresponds to that of the control, while an efficacy of 100% means that no infection is observed.
# [3] = test system: larvae of the mustard beetle (Phaedon cochleariae); test: Phaedon Larvae Test; type: in vivo; conditions: cabbage leaves dipped, 0.1 % by weight active compound; after 7 days
# Method: as §1
# Cabbage leaves (Brassica oleracea) are treated by being dipped into the preparation of active compound of the desired concentration and populated with larvae of the mustard beetle (Phaedon cochleariae) while the leaves are still moist.
# After 7 days, the kill is determined and expressed in per cent. An efficacy of 100% means that all beetle larvae have been killed, while an efficacy of 0% means that no beetle larvae have been killed.
SMILES,melting point,Kill in % after 7 d [2] [%],also measured
O=C(NCCc1cccc(Oc2ccc(Cl)cc2)c1)c1snc(Cl)c1Cl [Example 6],–,–,chromatographic logP [1]: 4.79; Efficacy in % (Venturia inaequalis): 96%
O=C(NCCOS(=O)OCCNC(=O)c1snc(Cl)c1Cl)c1snc(Cl)c1Cl,70 to 75 °C,–,–
O=C(Nc1ccccc1C1CCCCCC1)c1snc(Cl)c1Cl [Example 20],122 to 125 °C,100,–
CCN(CC)Cc1ccc(CNC(=O)c2snc(Cl)c2Cl)cc1 [Example 14],–,100,chromatographic logP [1]: 1.39
CCC(CC)c1ccc(NC(=O)c2snc(Cl)c2Cl)cc1,98 to 99 °C,–,–
O=C(Nc1ccccc1-c1ccccc1)c1snc(Cl)c1Cl [Example 21],83 to 84 °C (dec.),100,–
CC(C)(C)CSCc1ccc(NC(=O)c2snc(Cl)c2Cl)cc1,91 to 92 °C,–,–
O=C(NCCc1ccc(-c2ccc(Cl)cc2)cc1)c1snc(Cl)c1Cl [Example 23],135 to 136 °C,100,–
CCC(C)c1ccc(NC(=O)c2snc(Cl)c2Cl)cc1 (stereo not drawn) [Example 16],83 to 85 °C,–,Efficacy in % (Leptosphaeria nodorum): 81%
CC(C)(C)c1ccc(NC(=O)c2snc(Cl)c2Cl)cc1 [Example 3],148 to 149 °C,–,Kill in % after 7 d [3]: 100%
CN(C=O)CNC(=O)c1snc(Cl)c1Cl,87 to 88 °C,–,–
Cc1ccc(NC(=O)c2snc(Cl)c2Cl)c(C)c1,171 to 172 °C,–,–
CC(C)(C)c1ccc(CCNC(=O)c2snc(Cl)c2Cl)cc1 [Example 4],–,100,chromatographic logP [1]: 4.81
